Test results taken from PMC9318694 (Molecules, 2022).
Like-named read-outs stand apart in the source and are kept apart here.

Key:
[1] = target: T1, D2R (Homo sapiens, UniProt P14416); assay: HTRF competitive binding screening of virtual hits at 10 µM (normalized decrease in fluorescence); details: for Normalized Decrease in Fluorescence ± SD: Table 3, 10 µM, n = 4, normalized to the control; for NDF (normalized decreased fluorescence) ± SD: Table S9, all selected virtual hits, n = 4, 10 µM
[2] = target: T1, D2R; assay: HTRF KI determination of the selected ligands; type: binding; details: for Fold Difference in comparison to the determined KI of dopamine / Ki: Table 4; for Ki: n = 6
Method: The selected compounds were investigated in vitro to determine their binding affinities (KI values) at D2R.
All the HTRF assays were performed using a Tecan Spark plate reader. The respective settings were specifically modified and optimized for the determination of D2R ligand-binding affinities. […] Fluorophores were excited at 320 nm. A Dichroic 510 mirror was used, while lag and integration times of 100 and 400 µs were applied, respectively. Flashes were set to 75. Electronic gain was automatically optimized, while the z-position was optimized based on the well with the highest expected signal. […] The first plate was used to determine the gain and the z-position. Subsequently, the determined values were set manually for the second plate to enable direct comparison between the different plates.
The cells were stored in liquid nitrogen until further use. […] Bromocriptine mesylate (50 mg; CAYM14598-50) was acquired from VWR. The assay was conducted according to the standard operation protocol (SOP) available from PerkinElmer/cisbio. The 96-well plates were incubated at room temperature for 2 h. The 96-well plates were read on a Tecan Spark plate reader (the settings are shown in Section 4.5). The respective concentrations of the dilution series were performed in triplicates. In total, KD determination was performed three times.
The materials described in 4.6 were also used during KI determination of the ligands selected after screening. […] KI was determined following the SOP available at PerkinElmer/cisbio. The 96-well plates were incubated at room temperature in the dark for 2 h. The 96-well plates were read on a Tecan Spark plate reader (the settings are shown in Section 4.5). In total, KI determination was performed twice.

[3] = target: T1, D2R; details: cited from earlier work

T1 sequence (P14416 whole entry): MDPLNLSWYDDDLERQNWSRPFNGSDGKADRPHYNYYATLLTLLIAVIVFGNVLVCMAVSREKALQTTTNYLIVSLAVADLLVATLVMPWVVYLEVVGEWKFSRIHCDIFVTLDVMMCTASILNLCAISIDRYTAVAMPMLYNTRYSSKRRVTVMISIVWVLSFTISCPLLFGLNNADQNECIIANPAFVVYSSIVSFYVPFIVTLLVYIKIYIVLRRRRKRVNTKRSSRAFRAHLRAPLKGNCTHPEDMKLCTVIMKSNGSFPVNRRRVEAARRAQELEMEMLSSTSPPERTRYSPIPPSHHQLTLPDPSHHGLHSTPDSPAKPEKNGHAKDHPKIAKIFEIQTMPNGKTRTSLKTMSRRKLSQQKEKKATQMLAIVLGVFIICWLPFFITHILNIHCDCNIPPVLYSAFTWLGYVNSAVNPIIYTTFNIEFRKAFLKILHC

O=C(CCN1CCN(c2ccccc2F)CC1)Nc1cccc(F)c1 [Compound 17]
Normalized Decrease in Fluorescence ± SD [1]: 8.18 ± 3.62
NDF (normalized decreased fluorescence) ± SD [1]: 8.18 ± 3.62
activity (KI range in words) [2]: micromolar
Fold Difference in comparison to the determined KI of dopamine [2]: 9.0
Ki [2]: 1240 nM

CCN(CCC(=O)Nc1cccc(OC)c1)Cc1ccccc1 [Compound 16]
Normalized Decrease in Fluorescence ± SD [1]: 15.74 ± 18.15
NDF (normalized decreased fluorescence) ± SD [1]: 15.74 ± 18.15
Fold Difference in comparison to the determined KI of dopamine [2]: 1.1
Ki [2]: 10000 nM

CN1CCc2cccc3c2[C@H]1Cc1ccc(O)c(O)c1-3 [Compound 1, Apomorphine]
Normalized Decrease in Fluorescence ± SD [1]: 9.44 ± 5.97

SC144
NDF (normalized decreased fluorescence) ± SD [1]: 1.02 ± 0.36

O=C(CCCN1CC=C(n2c(=O)[nH]c3ccccc32)CC1)c1ccc(F)cc1 [Droperidol, droperidol]
Normalized Decrease in Fluorescence ± SD [1]: 38.69 ± 2.56

c1cnc(N2CCN(Cc3ccc4c(c3)OCO4)CC2)nc1 [Piribedil, piribedil]
Normalized Decrease in Fluorescence ± SD [1]: 9.21 ± 3.80

C=CC1CN2CCC1CC2C(O)c1ccnc2ccc(O)cc12 (stereo not drawn) [Compound 10]
NDF (normalized decreased fluorescence) ± SD [1]: 1.13 ± 0.37

O[C@H](CNCCNc1ccc(C(F)(F)F)cn1)CSc1ccc(F)cc1 [Compound 18]
Normalized Decrease in Fluorescence ± SD [1]: 10.85 ± 4.93
NDF (normalized decreased fluorescence) ± SD [1]: 10.85 ± 4.93
activity (KI range in words) [2]: micromolar
Fold Difference in comparison to the determined KI of dopamine [2]: 4.2
Ki [2]: 2630 nM

CCN1CCC[C@H]1CNC(=O)c1cc(S(N)(=O)=O)ccc1OC [Sulpiride, (S)-(−)-sulpiride]
Normalized Decrease in Fluorescence ± SD [1]: 30.65 ± 6.79

NS(=O)(=O)c1ccc(CCNCc2ccc(-c3cc(Cl)ccc3Cl)o2)cc1 [Compound 15]
Normalized Decrease in Fluorescence ± SD [1]: 3.99 ± 2.58
NDF (normalized decreased fluorescence) ± SD [1]: 3.99 ± 2.58
activity (KI range in words) [2]: micromolar
Fold Difference in comparison to the determined KI of dopamine [2]: 2.6
Ki [2]: 4310 nM

CC(C)C[C@H]1C(=O)N2CCC[C@H]2[C@]2(O)O[C@](NC(=O)[C@@H]3C=C4c5cccc6[nH]c(Br)c(c56)C[C@H]4N(C)C3)(C(C)C)C(=O)N12 [Compound 2, Bromocriptine]
Normalized Decrease in Fluorescence ± SD [1]: 39.10 ± 1.31
Ki [3]: 0.9 nM

CC/N=C1/SC(CC(=O)Nc2ccccc2C(F)(F)F)C(=O)N1CC (stereo not drawn) [Compound 11]
NDF (normalized decreased fluorescence) ± SD [1]: 0.84 ± 0.23

CC1CC(C)CN(CCC(=O)Nc2ccc(F)c(F)c2)C1 (stereo not drawn) [Compound 12]
NDF (normalized decreased fluorescence) ± SD [1]: 1.05 ± 0.50

NC(=O)c1ccccc1OCCCN1CCN(c2ccccc2)CC1 [Compound 19]
Normalized Decrease in Fluorescence ± SD [1]: 22.08 ± 6.62
NDF (normalized decreased fluorescence) ± SD [1]: 22.08 ± 6.62
activity (KI range in words) [2]: submicromolar
Fold Difference in comparison to the determined KI of dopamine [2]: 34.7
Ki [2]: 320 nM

CN1CCN(C2Cc3ccc(O)cc3Sc3ccc(Cl)cc32)CC1 (stereo not drawn) [Compound 14]
Normalized Decrease in Fluorescence ± SD [1]: 40.40 ± 1.39
activity (KI range in words) [2]: nanomolar
Fold Difference in comparison to the determined KI of dopamine [2]: 2700
Ki [2]: 4 nM

CCCN(CCN1CCN(c2ccc(-c3ccccc3)cc2)CC1)[C@H]1CCc2nc(N)sc2C1 [SC53, (S)-N6-(2-(4-([1,1'-biphenyl]-4-yl)piperazin-1-yl)ethyl)-N6-propyl-4,5,6,7-tetrahydrobenzo[d]thiazole-2,6-diamine]
Ki ([3]; Table S1, data set of actives, radio-ligand binding assays, ref ChEMBL, [50]-[70], read-out: KI): 264 nM
